According to patent publication US20240000828A1 (priority 2020, published 2024):
“And” between values parts separate entries of the source, which are not always exact repeats. Identical values can stand only once. Like-named read-outs stand apart in the source and are kept apart here.

Experiments:
[1] = test system: Vero E6 cells; settings: for Viability of Uninfected Vero E6 Cells (A540): 4 days, individual replicates; for Viability of Uninfected Vero E6 Cells (% Vehicle): 4-day treatment
[2] = test system: SARS-CoV-2 (MEX-BC2/2020); assay: Live SARS-CoV-2 CPE-based antiviral assay in Vero E6 cells (neutral red uptake); format: cell-based
[3] = test system: influenza A/California/07/2009 (H1N1); assay: microbe, parasite or virus in culture; format: cell-based, Influenza A Virus
[4] = test system: A549 cells
[5] = biological target: glycoprotein B-2 (gpB-2) (Human herpesvirus 2, UniProt P08666); settings: cited from earlier work
glycoprotein B-2 (gpB-2), sequence (P08666 23-904 limits assumed): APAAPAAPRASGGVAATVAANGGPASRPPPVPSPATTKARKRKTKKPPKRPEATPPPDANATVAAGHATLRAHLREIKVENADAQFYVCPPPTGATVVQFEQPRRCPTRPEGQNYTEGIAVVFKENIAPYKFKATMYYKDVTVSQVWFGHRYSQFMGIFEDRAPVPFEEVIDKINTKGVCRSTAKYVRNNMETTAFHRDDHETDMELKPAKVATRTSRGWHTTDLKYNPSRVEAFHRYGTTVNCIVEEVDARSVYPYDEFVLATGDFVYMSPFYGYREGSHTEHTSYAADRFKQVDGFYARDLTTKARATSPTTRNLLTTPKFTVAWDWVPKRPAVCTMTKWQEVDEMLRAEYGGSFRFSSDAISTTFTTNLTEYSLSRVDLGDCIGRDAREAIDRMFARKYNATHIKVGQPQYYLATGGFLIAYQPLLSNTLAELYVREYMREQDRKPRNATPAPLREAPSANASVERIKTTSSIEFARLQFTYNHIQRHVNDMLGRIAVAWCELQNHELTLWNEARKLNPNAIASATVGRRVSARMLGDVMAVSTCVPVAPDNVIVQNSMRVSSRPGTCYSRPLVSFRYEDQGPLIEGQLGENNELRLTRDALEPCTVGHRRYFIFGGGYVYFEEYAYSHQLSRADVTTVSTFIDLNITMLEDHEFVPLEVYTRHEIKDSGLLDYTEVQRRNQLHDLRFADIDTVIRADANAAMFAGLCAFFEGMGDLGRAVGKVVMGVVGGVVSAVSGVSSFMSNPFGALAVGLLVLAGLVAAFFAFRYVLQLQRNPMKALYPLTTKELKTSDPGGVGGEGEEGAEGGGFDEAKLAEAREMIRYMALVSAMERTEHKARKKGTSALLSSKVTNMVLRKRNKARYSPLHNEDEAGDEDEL

[6] = test system: Ebola virus; settings: cited from earlier work
[7] = test system: gp120; settings: by binding gp120; cited from earlier work

With `N#C[C@@]1(c2ccc3c(N)ncnn23)O[C@H](CO)[C@@H](O)[C@H]1O` [GS-441524] the “Viability of Uninfected Vero E6 Cells (A540)” value (“Viability … (A540)” below) ([1]; 1 μM) was 1.404 and 1.753, the “loss of viability in uninfected cells” value ([1]; 10 μM) was “no significant loss of viability” and the “Viability … (A540)” value ([1]; 10 μM) was 1.616. For the same molecule, the “Inhibition of SARS-CoV-2 (MEX-BC2/2020) Virus-Induced CPE (%)” value (shortened to “Inhibition … (%)”) ([2]; 0.03 μM, single data point) was −7.0%, the “Inhibition … (%)” value ([2]; 0.25 μM, single data point) was 51.9% and the “Inhibition … (%)” value ([2]; 0.74 μM, single data point) was 89.7%. For the same molecule, the “prevention of the virus-induced CPE” value ([2]; 1 μM) was “completely prevented”, the “Inhibition … (%)” value ([2]; 1 μM, positive control wells) was 112.3 ± 24.4% and the “Inhibition … (%)” value ([2]; 2.2 μM, single data point) was 89.9%. The “Inhibition … (%)” value ([2]; 6.7 μM, single data point) was 96.3%, the “Inhibition … (%)” value ([2]; 10 μM, positive control wells) was 117.2 ± 5.4% and the “prevention of the virus-induced CPE of the infected cells” value ([2]; control inhibitor, concentration not given) was “prevented completely”. The IC50 ([2]; control inhibitor, single data points, Vero E6, 96 hours) was 170 nM.

In the case of `O=C1c2c(O)c(=O)ccn2N([C@@H]2c3ccccc3SCc3c2ccc(F)c3F)[C@@H]2COCCN12` [Baloxavir, baloxavir], the “IAV Infectivity in A549 Cells (% Vehicle)” value ([3]; 0.01 nM, single data point) is reported as 95.3%, the “IVA Infectivity in A549 Cells (Absorbance 490 nm)” value (from here on “IVA Infectivity in A549 Cells”) ([3]; 0.01 nM, single data point) is reported as 1.064 and the “IAV Infectivity in A549 Cells (% Vehicle)” value ([3]; 0.06 nM, single data point) is reported as 86.9%. The “IVA Infectivity in A549 Cells” value ([3]; 0.06 nM, single data point) was 1.000, the “IAV Infectivity in A549 Cells (% Vehicle)” value ([3]; 0.32 nM, single data point) was 64.4% and the “IVA Infectivity in A549 Cells” value ([3]; 0.32 nM, single data point) was 0.828. The “IAV Infectivity in A549 Cells (% Vehicle)” value ([3]; 1.6 nM, single data point) was 17.7%, the “IVA Infectivity in A549 Cells” value ([3]; 1.6 nM, single data point) was 0.471 and the “IAV Infectivity in A549 Cells (% Vehicle)” value ([3]; 8.0 nM, single data point) was 6.1%. For the same molecule, the “IVA Infectivity in A549 Cells” value ([3]; 8.0 nM, single data point) was 0.383, the “IAV Infectivity in A549 Cells (% Vehicle)” value ([3]; 40 nM, single data point) was 5.6% and the “IVA Infectivity in A549 Cells” value ([3]; 40 nM, single data point) was 0.379. The “IAV Infectivity in A549 Cells (% Vehicle)” value ([3]; 0.2 μM, positive control) was 6.0%, the “IVA Infectivity in A549 Cells” value ([3]; 0.2 μM, positive control, 48 hours, individual replicates, listed as BLX) was 0.383 and 0.391 and 0.374 and the “IAV Infectivity in A549 Cells (% Vehicle)” value ([3]; 200 nM, single data point) was 6.0%. The “IVA Infectivity in A549 Cells” value ([3]; 200 nM, single data point) was 0.382, the “IAV Infectivity in A549 Cells (% Vehicle)” value ([3]; 1,000 nM, single data point) was 10.8% and the “IVA Infectivity in A549 Cells” value ([3]; 1,000 nM, single data point) was 0.419. For the same molecule, the IC50 ([3]; Influenza A virus, H1N1, control antiviral, single data points, A549 cells, 48 hours, read-out: IC50, IAV Antiviral Assay) was 0.49 nM, the block of infection ([3]; at some concentrations tested) was “over 99%” and the “Viability in A549 cells (% Vehicle)” value ([4]; 0.2 μM) was 102.0 ± 2.4%.

In the case of `CCN(CC)CCCC(C)Nc1ccnc2cc(Cl)ccc12` (centres unmarked) [CQ, chloroquine diphosphate], the “Viability of Uninfected Vero E6 Cells (% Vehicle)” value ([1]; 5 μM) is reported as 75.9 ± 2.6%, the “Viability … (A540)” value ([1]; 5 μM) is reported as 1.206 and 1.262 and the “Absorbance (540 nm), SARS-CoV-2-induced CPE” value [2] is reported as 0.985 and 1.011. For the same molecule, the “Inhibition … (%)” value ([2]; 5 μM, positive control wells) was 61.8 ± 2.5%.

With `C[S+](C)[O-]` [DMSO, Dimethyl sulfoxide] the “Viability of Uninfected Vero E6 Cells (% Vehicle)” value ([1]; 10%, cytotoxic agent control) was −0.2 ± 0.0%, the “Viability … (A540)” value ([1]; 10%, cytotoxic agent control) was 0.074 and 0.073 and the “block of cell viability” value ([1]; tested at 10%) was “more than 99%”.

With `CC[C@H]1CN2CCc3cc(OC)c(OC)cc3[C@@H]2C[C@@H]1C[C@H]1NCCc2cc(OC)c(OC)cc21` [Emetine] the “inhibition of cell viability” value ([4]; 10 μM) was “greater than 85%”, the “Viability in A549 cells (% Vehicle)” value ([4]; 10 μM, cytotoxic control) was 14.0 ± 4.6% and the “Viability in A549 Cells (A490)” value ([4]; 10 μM, cytotoxic control, 48 hours, individual replicates) was 0.236 and 0.179.

For polyphenylene carboxymethylene [PPCM], the “binding to gpB-2, which prevents herpes attachment and fusion” value [5] is given as “binds”, the “inhibition of Ebola virus” value [6] is given as “inhibited” and the “cell-to-cell transmission and primary infection by multiple clades of HIV-1” value [7] is given as “prevents”.
